Assay results from paper PMC6001238, “Iterative Chemical Engineering of Vancomycin Leads to Novel Vancomycin Analogs With a High in Vitro Therapeutic Index” (Frontiers in Microbiology, 2018).
In brackets after ≈: the same amount, converted by molar mass. Where two headings read alike, the source gives them in different places.

Tests used:
[1] = tested on: MRSA KS6; assay: MIC, broth microdilution, MRSA KS6; type: cell-based, Staphylococcus aureus; settings: for MIC-fold improvement vs. vancomycin: MRSA KS6, ratio of MIC of vancomycin and MIC of analogue; for MIC: Staphylococcus aureus MRSA KS6, read-out: MIC
Method in brief: (§1)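 Following CLSI antimicrobial susceptibility standards, organisms were tested by broth microdilution. Controls comprised ultrapure water plus broth left uninoculated. For a single condition, 10 μM vancomycin (final) accompanied the analog or control agent.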

[2] = tested on: human T-lymphocyte (CEM) cells; assay: Cytostatic activity, CEM cell proliferation; type: cell-based; settings: mean ± SD of three experiments; highest concentration tested 250 µM; 3 days; read-out: Toxicity (IC50) CEM
Method in brief: (§2)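 Readout: Coulter cell number after drug exposure at 37°C. Durations differ by line (L1210 2 days; CEM 3 days; HeLa 4 days). Stock suspension 300,000–500,000 cells/mL, diluted by mixing with compound. Endpoint: IC50 vs negative control.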

[3] = tested on: MRSA KS1; assay: MIC, broth microdilution, MRSA KS1; type: cell-based, Staphylococcus aureus; settings: for MIC: Staphylococcus aureus MRSA KS1, read-out: MIC
Method in brief: as §1

[4] = tested on: L1210, CEM and HeLa cell lines; assay: Cytostatic activity, average or summary over L1210, CEM and HeLa; type: cell-based
Method in brief: as §2

[5] = tested on: E. faecalis VRE 37; assay: MIC, broth microdilution, vancomycin-resistant E. faecalis VRE 37 (VanA); type: cell-based, Enterococcus faecalis; settings: for MIC: Enterococcus faecalis VRE 37 (vancomycin-resistant), read-out: MIC; for MIC-fold improvement vs. vancomycin: VRE 37, ratio of MIC of vancomycin and MIC of analogue
Method in brief: as §1

[6] = tested on: E. faecalis VRE 6; assay: MIC, broth microdilution, vancomycin-resistant E. faecalis VRE 6 (VanA); type: cell-based, Enterococcus faecalis; settings: for MIC: read-out: MIC
Method in brief: as §1

[7] = tested on: Murine leukemia (L1210) cells; assay: Cytostatic activity, L1210 cell proliferation; type: cell-based; settings: mean ± SD of three experiments; highest concentration tested 250 µM; 2 days; read-out: Toxicity (IC50) L1210
Method in brief: as §2

[8] = tested on: E. faecalis VSE 1; assay: MIC, broth microdilution, vancomycin-sensitive E. faecalis (VSE 1); type: cell-based, Enterococcus faecalis; settings: for MICvanc/MICi / MIC-fold improvement vs. vancomycin: ratio of MIC of vancomycin and MIC of analogue; for MIC: read-out: MIC; for MIC-fold improvement vs. vancomycin: VSE 1
Method in brief: as §1

[9] = tested on: E. coli XL-1 blue MRF'; assay: MIC, broth microdilution, E. coli XL-1 blue MRF'; type: cell-based, Escherichia coli; settings: E. coli XL-1 blue MRF'; for MICvanc/MICi: ratio of MIC of vancomycin and MIC of analogue
Description: (§3) The minimum inhibitory concentration (MIC) was determined using the broth microdilution method according to the antimicrobial susceptibility testing standards of the clinical and laboratory standards institute ([Clinical and Laboratory Standards Institute [CLSI], 2012]). Ultrapure water and non-inoculated broth were used as controls. In one case, a final concentration of 10 μM vancomycin was included with the vancomycin analog or control antibiotic.

[10] = tested on: S. aureus VSSA (ATCC 6538); assay: MIC, broth microdilution, vancomycin-sensitive S. aureus (VSSA/MSSA, ATCC 6538); type: cell-based, Staphylococcus aureus; settings: for MIC: Staphylococcus aureus VSSA, read-out: MIC
Method in brief: as §1

[11] = tested on: E. faecalis VRE 53; assay: MIC, broth microdilution, vancomycin-resistant E. faecalis VRE 53 (VanA); type: cell-based, Enterococcus faecalis; settings: for MICvanc/MICi / MIC-fold improvement vs. vancomycin: ratio of MIC of vancomycin and MIC of analogue; for MIC: read-out: MIC; for MIC-fold improvement vs. vancomycin: VRE 53
Method in brief: as §1

[12] = tested on: S. aureus VRSA; assay: MIC, broth microdilution, vancomycin-resistant S. aureus (VRSA); type: cell-based, Staphylococcus aureus; settings: for MIC: Staphylococcus aureus VRSA, read-out: MIC; for MIC-fold improvement vs. vancomycin: VRSA, ratio of MIC of vancomycin and MIC of analogue
Method in brief: as §1

[13] = tested on: MRSA KS89; assay: MIC, broth microdilution, MRSA KS89; type: cell-based, Staphylococcus aureus; settings: for MIC-fold improvement vs. vancomycin: MRSA KS8, ratio of MIC of vancomycin and MIC of analogue; for MIC: Staphylococcus aureus MRSA KS8, read-out: MIC
Method in brief: as §1

[14] = tested on: S. aureus VISA/HIP5827; assay: MIC, broth microdilution, vancomycin-intermediate S. aureus VISA HIP5827; type: cell-based, Staphylococcus aureus; settings: for MIC: Staphylococcus aureus VISA/HIP5827, read-out: MIC; for MIC-fold improvement vs. vancomycin: VISA/HIP5827, ratio of MIC of vancomycin and MIC of analogue
Method in brief: as §1

[15] = tested on: MRSA KS2; assay: MIC, broth microdilution, MRSA KS2; type: cell-based, Staphylococcus aureus; settings: for MIC: Staphylococcus aureus MRSA KS2, read-out: MIC
Method in brief: as §1

[16] = tested on: E. faecalis VRE 29; assay: MIC, broth microdilution, vancomycin-resistant E. faecalis VRE 29 (VanA); type: cell-based, Enterococcus faecalis; settings: for MIC: Enterococcus faecalis VRE 29 (vancomycin-resistant), read-out: MIC; for MIC-fold improvement vs. vancomycin: VRE 29, ratio of MIC of vancomycin and MIC of analogue
Method in brief: as §1

[17] = tested on: human cervix carcinoma (HeLa) cells; assay: Cytostatic activity, HeLa cell proliferation; type: cell-based; settings: mean ± SD of three experiments; highest concentration tested 250 µM; 4 days; read-out: Toxicity (IC50) HeLa
Method in brief: as §2

[18] = tested on: B. subtilis PSB3; assay: MIC, broth microdilution, B. subtilis PSB3; type: cell-based, Bacillus subtilis; settings: for MICvanc/MICi: ratio of MIC of vancomycin and MIC of analogue
Description: as §3

[19] = average of L1210, CEM and HeLa, read-out: Toxicity (IC50) Average
[20] = E. faecalis VRE 6, ratio of MIC of vancomycin and MIC of analogue
[21] = Enterococcus faecalis VRE 6 (vancomycin-resistant)
[22] = Enterococcus faecalis VSE 1 (vancomycin-sensitive)
[23] = Enterococcus faecalis VRE 53 (vancomycin-resistant)

With `C#Cc1ccc(C=Cc2ccc(NC(=O)CNC(=O)C3NC(=O)C4NC(=O)C(NC(=O)C5NC(=O)C(CC(N)=O)NC(=O)C(NC(=O)C(CC(C)C)NC)C(O)c6ccc(c(Cl)c6)Oc6cc5cc(c6OC5OC(CO)C(O)C(O)C5OC5CC(C)(N)C(O)C(C)O5)Oc5ccc(cc5Cl)C4O)c4ccc(O)c(c4)-c4c(O)cc(O)cc43)cc2)cc1` (stereo not shown) [Vanc-R] the “MIC-fold improvement vs. vancomycin” value [1] was 2, the MIC [1] was 0.39 µM (≈ 0.666 µg/mL) and the IC50 [2] was 1400 ± 600 nM. The “MIC-fold improvement vs. vancomycin” value ([3]; MRSA KS1, ratio of MIC of vancomycin and MIC of analogue) was 1, the MIC [3] was 0.78 µM (≈ 1.33 µg/mL) and the IC50 [4, 19] was 7 µM. For the same compound, the MIC [5] was 12.5 µM (≈ 21.3 µg/mL), the “MIC-fold improvement vs. vancomycin” value [5] was 64 and the MICvanc/MICi [6, 20] was 64. It also gave an MIC ([6]; E. faecalis VRE 6) of 3.13 µM (≈ 5.34 µg/mL), an MIC [6, 21] of 3.13 µM (≈ 5.34 µg/mL) and an IC50 [7] of 5.7 ± 0.7 µM. It also gave an MICvanc/MICi ([8]; E. faecalis VSE 1) of 8, an MIC ([8]; E. faecalis VSE 1) of 0.20 µM (≈ 0.342 µg/mL) and an MIC [8, 22] of 0.19 µM (≈ 0.324 µg/mL). The “MIC-fold improvement vs. vancomycin” value [8] was 8, the MIC [9] was 100 µM (≈ 171 µg/mL) and the MICvanc/MICi [9] was 1. The MIC [10] was 0.10 µM (≈ 0.171 µg/mL), the “MIC-fold improvement vs. vancomycin” value ([10]; VSSA, ratio of MIC of vancomycin and MIC of analogue) was 8 and the MICvanc/MICi ([11]; E. faecalis VRE 53) was 64. For the same compound, the MIC ([11]; E. faecalis VRE 53) was 6.25 µM (≈ 10.7 µg/mL), the MIC [11, 23] was 6.25 µM (≈ 10.7 µg/mL) and the “MIC-fold improvement vs. vancomycin” value [11] was 64. For the same compound, the MIC [12] was 1.56 µM (≈ 2.66 µg/mL), the “MIC-fold improvement vs. vancomycin” value [12] was 64 and the “MIC-fold improvement vs. vancomycin” value [13] was 2. For the same compound, the MIC [13] was 0.39 µM (≈ 0.666 µg/mL), the MIC [14] was 0.78 µM (≈ 1.33 µg/mL) and the “MIC-fold improvement vs. vancomycin” value [14] was 8. For the same compound, the “MIC-fold improvement vs. vancomycin” value ([15]; MRSA KS2, ratio of MIC of vancomycin and MIC of analogue) was 2, the MIC [15] was 0.39 µM (≈ 0.666 µg/mL) and the MIC [16] was 1.56 µM (≈ 2.66 µg/mL). For the same compound, the “MIC-fold improvement vs. vancomycin” value [16] was 256, the IC50 [17] was 15 ± 1 µM and the MIC [18] was 0.78 µM (≈ 1.33 µg/mL). For the same compound, the MICvanc/MICi [18] was 0.5.

`C#CCCC(=O)NCCCNC(=O)C1NC(=O)C2NC(=O)C(NC(=O)C3NC(=O)C(CC(N)=O)NC(=O)C(NC(=O)C(CC(C)C)NC)C(O)c4ccc(c(Cl)c4)Oc4cc3cc(c4OC3OC(CO)C(O)C(O)C3OC3CC(C)(N)C(O)C(C)O3)Oc3ccc(cc3Cl)C2O)c2ccc(O)c(c2)-c2c(O)cc(O)cc21` (stereo not shown) [Vanc-B] was tested, and the “MIC-fold improvement vs. vancomycin” value [1] was 0.5, the MIC [1] was 1.56 µM (≈ 2.47 µg/mL) and the IC50 [2] was greater than 250000 nM. For the same compound, the MIC [3] was 0.78 µM (≈ 1.24 µg/mL), the IC50 [4, 19] was greater than 250 µM and the IC50 ([4]; summary over the three cell lines, read-out: IC50 (L1210, CEM, HeLa), depending on the cell line used) was greater than 250 µM. The MIC [5] was 100 µM (≈ 159 µg/mL), the “MIC-fold improvement vs. vancomycin” value [5] was 8 and the MICvanc/MICi [6, 20] was 4. The MIC ([6]; E. faecalis VRE 6) was 50 µM (≈ 79.3 µg/mL), the MIC [6, 21] was 50 µM (≈ 79.3 µg/mL) and the “MIC-fold improvement vs. vancomycin” value ([6]; VRE 6, ratio of MIC of vancomycin and MIC of analogue) was 4. For the same compound, the IC50 [7] was greater than 250 µM, the MICvanc/MICi ([8]; E. faecalis VSE 1) was 2 and the MIC ([8]; E. faecalis VSE 1) was 0.78 µM (≈ 1.24 µg/mL). The MIC [8, 22] was 0.78 µM (≈ 1.24 µg/mL), the “MIC-fold improvement vs. vancomycin” value [8] was 2 and the MIC [9] was 25 µM (≈ 39.6 µg/mL). For the same compound, the MICvanc/MICi [9] was 4, the MIC [10] was 0.78 µM (≈ 1.24 µg/mL) and the MICvanc/MICi ([11]; E. faecalis VRE 53) was 32. The MIC ([11]; E. faecalis VRE 53) was 12.5 µM (≈ 19.8 µg/mL), the MIC [11, 23] was 12.5 µM (≈ 19.8 µg/mL) and the “MIC-fold improvement vs. vancomycin” value [11] was 32. For the same compound, the MIC [12] was 12.5 µM (≈ 19.8 µg/mL), the “MIC-fold improvement vs. vancomycin” value [12] was 8 and the “MIC-fold improvement vs. vancomycin” value [13] was 1. The MIC [13] was 1.56 µM (≈ 2.47 µg/mL), the MIC [14] was 3.13 µM (≈ 4.96 µg/mL) and the “MIC-fold improvement vs. vancomycin” value [14] was 2. For the same compound, the MIC [15] was 0.78 µM (≈ 1.24 µg/mL), the MIC [16] was 100 µM (≈ 159 µg/mL) and the “MIC-fold improvement vs. vancomycin” value [16] was 4. For the same compound, the IC50 [17] was greater than 250 µM, the MIC [18] was 0.20 µM (≈ 0.317 µg/mL) and the MICvanc/MICi [18] was 2.
